# Measurements taken from US7396837B2, “Antitumoral analogs of lamellarins” (Pharma Mar, S.A.U., priority 2002, dated 2008).
# Legend:
# DU-145 = test: SRB colorimetric cell growth inhibition assay, DU-145; assay type: cell-based; details: Homo sapiens
# Summary of the method: (§1)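 After uninterrupted treatment, cultures are fixed and stained with sulforhodamine B, and absorbance reflects cell growth and viability. Each value represents the average of triplicate wells with SD.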
# LNCaP = test: SRB colorimetric cell growth inhibition assay, LNCaP; assay type: cell-based; details: Homo sapiens, LNCaP
# Summary of the method: as §1
# HT-29 = test: SRB colorimetric cell growth inhibition assay, HT-29; assay type: cell-based; details: Homo sapiens
# Summary of the method: as §1
# SK-MEL-28 = test: SRB colorimetric cell growth inhibition assay, SK-MEL-28; assay type: cell-based; details: Homo sapiens
# Summary of the method: as §1
# PANC-1 = test: SRB colorimetric cell growth inhibition assay, PANC-1; assay type: cell-based; details: Homo sapiens
# Summary of the method: as §1
# H-MEC-1 = test: SRB colorimetric cell growth inhibition assay, H-MEC-1; assay type: cell-based; details: Homo sapiens, HMEC-1, H-MEC-1
# Summary of the method: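 Sulforhodamine B colorimetric assay of cell growth and viability, mean ± SD of triplicate wells. Parameters derived: GI (growth inhibition), TGI (total growth inhibition, cytostatic) and LC (cell killing, cytotoxic).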
# LoVo-Dox = test: SRB colorimetric cell growth inhibition assay, LoVo-Dox (MDR); assay type: cell-based; details: Homo sapiens
# Summary of the method: as §1
# A-549 = test: SRB colorimetric cell growth inhibition assay, A-549; assay type: cell-based; details: Homo sapiens
# Summary of the method: as §1
# SK-BR-3 = test: SRB colorimetric cell growth inhibition assay, SK-BR-3; assay type: cell-based; details: Homo sapiens
# Summary of the method: as §1
# IGROV-ET = test: SRB colorimetric cell growth inhibition assay, IGROV-ET (ET-743 resistant); assay type: cell-based; details: Homo sapiens
# Summary of the method: as §1
# LoVo = test: SRB colorimetric cell growth inhibition assay, LoVo; assay type: cell-based; details: Homo sapiens, LoVo
# Summary of the method: as §1
# human topoisomerase I = target: T1, human topoisomerase I (Homo sapiens, UniProt P11387); test: Topoisomerase I DNA relaxation assay (supercoiled plasmid DNA); assay type: biochemical; details: supercoiled plasmid DNA, each compound tested at 1 μM, agarose gel with ethidium bromide
# T1 sequence (P11387 1-765): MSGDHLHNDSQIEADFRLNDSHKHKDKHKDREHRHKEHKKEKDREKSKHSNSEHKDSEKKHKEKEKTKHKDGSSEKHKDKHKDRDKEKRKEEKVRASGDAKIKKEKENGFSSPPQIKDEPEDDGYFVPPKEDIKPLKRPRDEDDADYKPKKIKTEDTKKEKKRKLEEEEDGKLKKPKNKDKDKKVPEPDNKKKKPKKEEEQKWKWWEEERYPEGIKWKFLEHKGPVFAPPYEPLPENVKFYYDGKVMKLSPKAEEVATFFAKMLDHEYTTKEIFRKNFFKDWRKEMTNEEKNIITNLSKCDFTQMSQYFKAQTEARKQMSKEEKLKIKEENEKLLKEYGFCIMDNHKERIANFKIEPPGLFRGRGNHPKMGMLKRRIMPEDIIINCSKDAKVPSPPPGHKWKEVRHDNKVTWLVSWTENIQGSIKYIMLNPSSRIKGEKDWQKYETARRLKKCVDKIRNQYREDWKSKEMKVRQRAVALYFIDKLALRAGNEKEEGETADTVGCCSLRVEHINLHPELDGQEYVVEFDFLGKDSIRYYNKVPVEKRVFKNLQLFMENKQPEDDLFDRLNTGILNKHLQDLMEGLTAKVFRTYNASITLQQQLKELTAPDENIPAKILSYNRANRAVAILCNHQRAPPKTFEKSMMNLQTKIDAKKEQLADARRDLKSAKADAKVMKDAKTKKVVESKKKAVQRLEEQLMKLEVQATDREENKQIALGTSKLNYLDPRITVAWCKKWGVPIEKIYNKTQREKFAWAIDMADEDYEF
# Summary of the method: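 Supercoiled plasmid DNA was relaxed by human topoisomerase I with or without test compound at 1 μM. Products were resolved by agarose gel electrophoresis with ethidium bromide staining.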
# K-562 = test: SRB colorimetric cell growth inhibition assay, K-562; assay type: cell-based; details: Homo sapiens
# Summary of the method: as §1
# IGROV = test: SRB colorimetric cell growth inhibition assay, IGROV; assay type: cell-based; details: Homo sapiens, IGROV
# Summary of the method: as §1
structure (smiles),measurement,setting,value
"COc1cc(-c2c3c4cc(OC)c(O)cc4oc(=O)c3n3ccc4cc(O)c(OC)cc4c23)ccc1O [Compound 3, lamellarin D, reference compound]",GI50,"DU-145; DU-145, DU-145, GI=growth inhibition, read-out: GI50 DU-145",0.019 µM
same,IC (TGI),"DU-145; DU-145, DU-145, total growth inhibition (cytostatic effect), read-out: TGI DU-145",0.0797 µM
same,CC50,"DU-145; DU-145, read-out: LC50 DU-145, DU-145, cell killing (cytotoxic effect)",20 µM
same,GI50,"LNCaP; LN-caP, GI=growth inhibition, read-out: GI50 LN-caP",0.123 µM
same,IC (TGI),"LNCaP; LN-caP, total growth inhibition (cytostatic effect), read-out: TGI LN-caP",0.398 µM
same,CC50,"LNCaP; read-out: LC50 LN-caP, LN-caP, cell killing (cytotoxic effect)",1.06 µM
same,GI50,"HT-29; HT-29, HT-29, GI=growth inhibition, read-out: GI50 HT-29",5.33 µM
same,IC (TGI),"HT-29; HT-29, HT-29, total growth inhibition (cytostatic effect), read-out: TGI HT-29",19 µM
same,CC50,"HT-29; HT-29, read-out: LC50 HT-29, HT-29, cell killing (cytotoxic effect)",20 µM
same,GI50,"SK-MEL-28; SK-MEL-28, MEL-28, GI=growth inhibition, read-out: GI50 MEL-28",0.0881 µM
same,IC (TGI),"SK-MEL-28; SK-MEL-28, MEL-28, total growth inhibition (cytostatic effect), read-out: TGI MEL-28",1.77 µM
same,CC50,"SK-MEL-28; SK-MEL-28, read-out: LC50 MEL-28, MEL-28, cell killing (cytotoxic effect)",11.3 µM
same,GI50,"PANC-1; PANC-1, PANC-1, GI=growth inhibition, read-out: GI50 PANC-1",0.248 µM
same,IC (TGI),"PANC-1; PANC-1, PANC-1, total growth inhibition (cytostatic effect), read-out: TGI PANC-1",2.2 µM
same,CC50,"PANC-1; PANC-1, read-out: LC50 PANC-1, PANC-1, cell killing (cytotoxic effect)",20 µM
same,GI50,"H-MEC-1; GI=growth inhibition, read-out: GI50 H-MEC-1",0.113 µM
same,IC (TGI),"H-MEC-1; total growth inhibition (cytostatic effect), read-out: TGI H-MEC-1",3.14 µM
same,GI50,"LoVo-Dox; LOVO-DOX, GI=growth inhibition, read-out: GI50 LOVO-DOX",0.42 µM
same,IC (TGI),"LoVo-Dox; LOVO-DOX, total growth inhibition (cytostatic effect), read-out: TGI LOVO-DOX",1.67 µM
same,CC50,"LoVo-Dox; read-out: LC50 LOVO-DOX, LOVO-DOX, cell killing (cytotoxic effect)",20 µM
same,GI50,"A-549; A549, A-549, GI=growth inhibition, read-out: GI50 A-549",0.0204 µM
same,IC (TGI),"A-549; A549, A-549, total growth inhibition (cytostatic effect), read-out: TGI A-549",1.14 µM
same,CC50,"A-549; A549, read-out: LC50 A-549, A-549, cell killing (cytotoxic effect)",15.5 µM
same,GI50,"SK-BR-3; SK-BR-3, SK-BR-3, GI=growth inhibition, read-out: GI50 SK-BR-3",0.106 µM
same,IC (TGI),"SK-BR-3; SK-BR-3, SK-BR-3, total growth inhibition (cytostatic effect), read-out: TGI SK-BR-3",0.767 µM
same,CC50,"SK-BR-3; SK-BR-3, read-out: LC50 SK-BR-3, SK-BR-3, cell killing (cytotoxic effect)",7.69 µM
same,GI50,"IGROV-ET; IGROV-ET, GI=growth inhibition, read-out: GI50 IGROV-ET",0.214 µM
same,IC (TGI),"IGROV-ET; IGROV-ET, total growth inhibition (cytostatic effect), read-out: TGI IGROV-ET",1.16 µM
same,CC50,"IGROV-ET; read-out: LC50 IGROV-ET, IGROV-ET, cell killing (cytotoxic effect)",20 µM
same,CC50,"LoVo; read-out: LC50 LOVO, LOVO, cell killing (cytotoxic effect)",2 µM
same,GI50,"LoVo; GI=growth inhibition, read-out: GI50 LOVO",0.398 µM
same,IC (TGI),"LoVo; total growth inhibition (cytostatic effect), read-out: TGI LOVO",0.965 µM
same,stimulation of DNA cleavage by topoisomerase I / inhibition of topoisomerase I (nicked DNA band) in DNA relaxation assay,human topoisomerase I,significantly amplified
same,GI50,"K-562; K562, K-562, GI=growth inhibition, read-out: GI50 K-562",0.0869 µM
same,IC (TGI),"K-562; K562, K-562, total growth inhibition (cytostatic effect), read-out: TGI K-562",0.791 µM
same,CC50,"K-562; K562, read-out: LC50 K-562, K-562, cell killing (cytotoxic effect)",8.15 µM
same,CC50,"IGROV; read-out: LC50 IGROV, IGROV, cell killing (cytotoxic effect)",20 µM
same,GI50,"IGROV; GI=growth inhibition, read-out: GI50 IGROV",0.236 µM
same,IC (TGI),"IGROV; total growth inhibition (cytostatic effect), read-out: TGI IGROV",1.06 µM
